The values that follow are results of earlier work, collected in US11129554B2, “Sweat monitoring and control of drug delivery” (University Of Cincinnati, priority 2014, dated 2021).

For data set [1], the system named is alpha-blocking.
The test system of data set [2] is beta-adrenoceptors.
The conditions of data set [3]: in vivo.
The conditions of data set [4]: dye clearance tests.

Regarding `COc1ccccc1OCCNCC(O)COc1cccc2[nH]c3ccccc3c12` (single isomer, unassigned) [Carvedilol R(+) isomer, Carvedilol], in data set [1], the “alpha-blocking activity” value is given as “approximately equally alpha-blocking potency”.
Consider `CC(C)NC[C@H](O)COc1cccc2ccccc12` [1-Propranolol], for which, in data set [2], the “beta-blocking activity” value is reported as “has beta-adrenoceptors blocking action”.
As to `COc1ccccc1OCCNCC(O)COc1cccc2[nH]c3ccccc3c12` (stereo not drawn) [Carvedilol S(−) isomer, Carvedilol], the “alpha-blocking activity” value in data set [1] was “approximately equally alpha-blocking potency”. For the same compound, the “beta-blocking activity” value in data set [2] is “nonselective beta-adrenoceptor blocker”.
As to `COc1ccc2c(c1)[C@]13CCCC[C@@H]1[C@H](C2)N(C)CC3` [DM, Dextromethorphan], the half-life (usually how long it takes for the measured level to halve) in data set [3] was 2 to 4 h.
Turning to `CC(CCc1ccccc1)NCC(O)c1ccc(O)c(C(N)=O)c1` [Labetalol (R, R) isomer, Labetalol], the “beta-blocking activity” value in data set [2] is given as “potent beta-blocker”.
Consider `CC(CCc1ccccc1)NCC(O)c1ccc(O)c(C(N)=O)c1` [Labetalol (R, S) isomer, Labetalol], for which the “beta-blocking activity” value in data set [2] is “relatively inactive”.
With `CC(CCc1ccccc1)NCC(O)c1ccc(O)c(C(N)=O)c1` [Labetalol (S, R) isomer, Labetalol], the “alpha-blocking activity” value in data set [1] is reported as “potent alpha-blocker”.
Take `CC(CCc1ccccc1)NCC(O)c1ccc(O)c(C(N)=O)c1` [Labetalol (S, S) isomer, Labetalol]: the “beta-blocking activity” value in data set [2] is “relatively inactive”.
For the compound `OC(CNCC(O)C1CCc2cc(F)ccc2O1)C1CCc2cc(F)ccc2O1` (stereo not shown) [Nebivolol], the “beta-blocking activity” value in data set [2] is listed as “highly selectively beta-1-blocking effects”.
On to `CC(C)NCC(O)c1ccc(NS(C)(=O)=O)cc1` [Sotalol D-isomer, Sotalol], for which, in data set [2], the “beta-blocking activity” value is given as “no beta-blocking activity”.
For the compound `CC(C)NCC(O)c1ccc(NS(C)(=O)=O)cc1` [Sotalol L-isomer, Sotalol], in data set [2], the “beta-blocking activity” value is “has beta-blocking activity”.
Turning to `CN1C(=O)CC[C@H]1c1cccnc1` [cotinine], in data set [3], the half-life entry was “about 20 hours”.
Turning to `CC(C)NC[C@@H](O)COc1cccc2ccccc12` [d-propranolol], the “beta-blocking activity” value in data set [2] was “inactive”.
For S-Timolol, the “alpha-blocking activity” value in data set [1] was “more a potent alpha-blocker than R-timolol”.
In the case of carboxyethyl-hydroxychroman [CEHC], the “resolution of excretion in sweat” value in data set [4] was 2 to 3 min.
